Consider one compound from ChEMBL document CHEMBL1201862, “PubChem BioAssay data set” (2004).

Each structure is given as a SMILES string.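 Results reflect a 48-hour exposure of cells in 96-well plates to compound at five concentrations. GI50 = concentration required for 50% inhibition of growth.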 Activity calls are given as the source filed them. Rule as the data show it: active = GI50 up to about 1.1 µM and inactive = higher. Some results are limits rather than exact numbers.

Among the test systems are KM12; LXFL 529; NCI-H522; OVCAR-3; CCRF-CEM; UACC-62; HL-60; A549; SK-MEL-2; K562; OVCAR-4; LOX IMVI; DMS-114; SK-MEL-28; HCT-15; UO-31; SW-620; OVCAR-8; DMS-273; HCT-116.
Common to all, as to experiment: NCI anticancer screen, dose series, 48 h

For `CN(C)CCCNC(=O)c1cccc2ccccc12`, the GI50 with KM12, in the test with LXFL 529, in the test with NCI-H522, with OVCAR-3, in the test on CCRF-CEM and with UACC-62 was > 100 µM (inactive) throughout. Moreover, the GI50 in the test on HL-60 is 12.7 µM (inactive); in the test on A549 it was > 100 µM (inactive); in the test with SK-MEL-2, > 100 µM (inactive); in the test on K562 it was > 100 µM (inactive); in the test with OVCAR-4, > 100 µM (inactive); in the test with LOX IMVI, > 100 µM (inactive). In addition, the GI50 in the test on DMS-114 is > 100 µM (inactive); in the test on SK-MEL-28, > 100 µM (inactive); with HCT-15, greater than 100 µM; in the test with UO-31, > 10 µM (inactive); in the test with SW-620 it was > 100 µM (inactive); in the test with OVCAR-8 it was > 100 µM (inactive). The GI50 with DMS-273 and with HCT-116 was > 100 µM (inactive) in each case.
